This note sets out measurements from ChEMBL document CHEMBL5505960, “Synthesis and evaluation of butylphthalide-scutellarein hybrids as multifunctional agents for the treatment of Alzheimer's disease” (Eur J Med Chem, 2024).

Data set [1] in a line: Antioxidant activity assessed as trolox equivalent of ORAC radical scavenging activity by ORAC-FL assay relative to trolox. In kind it is functional.
Data set [2] deals with Amyloid-beta precursor protein (Homo sapiens) (UniProt P05067). Briefly: Inhibition of amyloid beta (1 to 42) (unknown origin) self induced aggregation at 25 uM by ThT fluorescence assay relative to control.
The test system of data set [3] is BV-2. Kind of data set: Antineuroinflammatory activity in LPS-induced mouse BV-2 cells assessed as inhibition of TNF-alpha release at 2.5 uM preincubated for 30 mins followed by LPS stimulation and measured after 24 hrs relative to control. Particulars: time 24.5 hrs. On the set-up: scale not given: the % may be the effect or the level left. In kind it is functional.

Data set [4] has as its system BV-2. Briefly: Antineuroinflammatory activity in LPS-induced mouse BV-2 cells assessed as inhibition of IL-1 beta release at 0.5 uM preincubated for 30 mins followed by LPS stimulation and measured after 24 hrs relative to control. In kind it is functional. On the set-up: scale not given: the % may be the effect or the level left. Particulars: time 24.5 hrs.
The test system of data set [5] is BV-2. Briefly: Antineuroinflammatory activity in LPS-induced mouse BV-2 cells assessed as inhibition of NO release at 10 uM preincubated for 30 mins followed by LPS stimulation and measured after 24 hrs relative to control. In kind it is functional. Further details: scale not given: the % may be the effect or the level left. The settings on record: time 24.5 hrs.

Data set [6] relates to BV-2. Briefly: Antineuroinflammatory activity in LPS-induced mouse BV-2 cells assessed as inhibition of TNF-alpha release at 10 uM preincubated for 30 mins followed by LPS stimulation and measured after 24 hrs relative to control. In kind it is functional. On the set-up: scale not given: the % may be the effect or the level left. Particulars: time 24.5 hrs.
The subject of data set [7] is BV-2. Briefly: Antineuroinflammatory activity in LPS-induced mouse BV-2 cells assessed as inhibition of IL-1 beta release at 2.5 uM preincubated for 30 mins followed by LPS stimulation and measured after 24 hrs relative to control. In kind it is functional. On the set-up: scale not given: the % may be the effect or the level left. Particulars: time 24.5 hrs.
Data set [8] has as its system BV-2. Kind of data set: Antineuroinflammatory activity in LPS-induced mouse BV-2 cells assessed as inhibition of IL-1 beta release at 10 uM preincubated for 30 mins followed by LPS stimulation and measured after 24 hrs relative to control. In kind it is functional. On the set-up: scale not given: the % may be the effect or the level left. The settings on record: time 24.5 hrs.

Data set [9] deals with BV-2. Kind of data set: Cytotoxicity against LPS-induced mouse BV-2 cells assessed as cell viability at 0.5 to 10 uM incubated for 24 hrs by MTT assay. In kind it is toxicity, cell-based. Particulars: bv-2, 24 h, dose 0.5-10 µM. For orientation: Formazan colour is commonly taken as a measure of viable cells.
Data set [10] concerns BV-2. Briefly: Antineuroinflammatory activity in LPS-induced mouse BV-2 cells assessed as inhibition of NO release at 2.5 uM preincubated for 30 mins followed by LPS stimulation and measured after 24 hrs relative to control. In kind it is functional. Further details: scale not given: the % may be the effect or the level left. Particulars: time 24.5 hrs.
For data set [11], the system named is HT-22. Kind of data set: Neuroprotective activity against amyloid beta (1 to 42)-induced injury in mouse HT-22 cells assessed as reversal of reduced cell synapse length at 10 uM measured after 24 hrs […]. In kind it is functional, cell-based.
Data set [12] concerns HT-22. Briefly: Neuroprotective activity against amyloid beta (1 to 42)-induced injury in mouse HT-22 cells assessed as reversal of reduction in cell numbers at 10 uM measured after 24 hrs by MTT assay. In kind it is functional, cell-based.
In data set [13] the test system is HT-22. Kind of data set: Neuroprotective activity against amyloid beta (1 to 42) induced cell injury in mouse HT-22 cells assessed as cell viability at 50 uM incubated for 24 hrs by MTT assay. In kind it is functional, cell-based.
Data set [14] relates to BV-2. Briefly: Cytotoxicity against mouse BV-2 cells at upto 10 uM measured after 24 hrs by MTT assay. Particulars: bv-2, 24 h. In kind it is toxicity, cell-based.
Data set [15] relates to BV-2. Kind of data set: Antineuroinflammatory activity in LPS-induced mouse BV-2 cells assessed as inhibition of NO release at 0.5 uM preincubated for 30 mins followed by LPS stimulation and measured after 24 hrs relative to control. In kind it is functional. Further details: scale not given: the % may be the effect or the level left. The settings on record: time 24.5 hrs.

In data set [16] the test system is BV-2. Kind of data set: Antineuroinflammatory activity in LPS-induced mouse BV-2 cells assessed as inhibition of TNF-alpha release at 0.5 uM preincubated for 30 mins followed by LPS stimulation and measured after 24 hrs relative to control. In kind it is functional. On the set-up: scale not given: the % may be the effect or the level left. The settings on record: time 24.5 hrs.

The target of data set [17] is Amyloid-beta precursor protein (Homo sapiens) (UniProt P05067). Briefly: Inhibition of Cu2+ induced amyloid beta (1 to 42)(unknown origin) fibrillation at 25 uM by ThT fluorescence assay relative to control.
Data set [18] shares this target. Briefly: Disaggregation of self-induced amyloid beta (1 to 42) (unknown origin) fibrils at 25 uM by ThT fluorescence assay relative to control.

Activity calls are given as the source filed them. The calls are words filed in the database; no cut-off is given here.

Chain of Amyloid-beta precursor protein (Homo sapiens) (P05067 whole entry): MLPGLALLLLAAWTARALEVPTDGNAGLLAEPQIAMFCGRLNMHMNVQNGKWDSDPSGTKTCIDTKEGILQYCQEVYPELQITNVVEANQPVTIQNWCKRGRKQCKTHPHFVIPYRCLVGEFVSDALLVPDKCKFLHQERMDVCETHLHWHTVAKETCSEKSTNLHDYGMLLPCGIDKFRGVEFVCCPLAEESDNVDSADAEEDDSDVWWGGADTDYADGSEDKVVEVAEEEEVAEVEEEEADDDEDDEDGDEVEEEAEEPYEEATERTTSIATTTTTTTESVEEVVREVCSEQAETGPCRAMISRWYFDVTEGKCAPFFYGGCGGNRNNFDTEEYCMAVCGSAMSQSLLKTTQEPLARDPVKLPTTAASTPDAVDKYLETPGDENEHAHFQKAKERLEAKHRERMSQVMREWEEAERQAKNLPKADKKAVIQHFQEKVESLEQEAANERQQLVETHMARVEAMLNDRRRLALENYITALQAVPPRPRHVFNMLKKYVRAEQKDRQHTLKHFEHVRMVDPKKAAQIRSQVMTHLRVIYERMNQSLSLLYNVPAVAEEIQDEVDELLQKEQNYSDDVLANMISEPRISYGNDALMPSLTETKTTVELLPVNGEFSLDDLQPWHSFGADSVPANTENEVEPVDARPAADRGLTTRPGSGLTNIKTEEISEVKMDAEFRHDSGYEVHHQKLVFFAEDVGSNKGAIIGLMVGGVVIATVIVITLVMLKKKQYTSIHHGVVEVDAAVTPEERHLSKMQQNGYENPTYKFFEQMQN

For orientation: inhibition means the drop in the measured response relative to a control, in per cent. Take `CCCCCCC1OC(=O)c2c1cc(OC)c(OC)c2O` (stereo not drawn): the Activity in data set [1] came out at 1.44. Also, the inhibition in data set [2] was found to be 25.2%.

Regarding `CCCCCC1OC(=O)c2c1cc(OC)c(OC)c2O` (stereo not drawn), the Activity in [1] was 1.36. In data set [2], this molecule had an inhibition of 35.1%.

As for `CCCCCC1OC(=O)c2c1cc(OC)c(OC)c2OC` (stereo not drawn), in data set [1], the Activity is 0.47. Further, the inhibition in [2] was determined as 19.4%.

Consider `CCCCCCCC1OC(=O)c2c1cc(OC)c(OC)c2OC` (stereo not drawn), for which, in [1], the Activity was 0.62. The molecule further displayed an inhibition in data set [2] of 16.5%.

As to `C=CC(C)(C)C1OC(=O)c2c1cc(OC)c(OC)c2O` (stereo not drawn), in data set [1], the Activity was determined as 1.94. For the same molecule, the inhibition in data set [2] came to 37.1%.

As to `CCCC1OC(=O)c2c1cc(OC)c(OC)c2O` (stereo not drawn), in data set [1], the Activity is 1.21. The same molecule had an inhibition in data set [2] of 27.3%.

Turning to `C=CCC1OC(=O)c2c1cc(OC)c(OC)c2O` (stereo not drawn), the Activity in data set [1] is 1.71. The same molecule displayed an inhibition in data set [2] of less than 5%.

With `CCCCC1OC(=O)c2ccccc21` (racemic) [RAC-3-N-BUTYLPHTHALIDE], the Activity was found to be 24% in data set [3]; 11.5% in data set [4]; 45.5% in data set [5]; 40.6% in data set [6]; 21.1% in data set [7]; 31.3% in data set [8]. Besides, the Activity entry in data set [9] is “Non-Toxic”; in data set [10], 23.2%; in [1], 0.23; in [14], “Non-Toxic”; in [15] it was 13.3%; in [16] it was 12.6%. Also, the result in [11] and in [12] was inactive. Also, the result in data set [13] was Active.

Regarding `C=CCCCCCC1OC(=O)c2c1cc(OC)c(OC)c2O` (stereo not drawn), the Activity in data set [1] came to 1.81. This molecule also yielded an inhibition in data set [2] of less than 5%.

As for `CCCCCCC1OC(=O)c2c1cc(OC)c(OC)c2OC` (stereo not drawn), the Activity in [1] amounted to 0.68. In data set [2], the inhibition came out at 25.2%.

On to `CCCCCCC1OC(=O)c2c1cc(OC)c(O)c2OC` (stereo not drawn), for which, in data set [1], the Activity stood at 1.6. The inhibition in data set [2] was determined as 29.1%.

Turning to `C=CCCCC1OC(=O)c2c1cc(OC)c(OC)c2OC` (stereo not drawn), the Activity in [1] was determined as 0.71. The molecule further came in with an inhibition in data set [2] of 19.2%.

Turning to `C=CCCCCCC1OC(=O)c2c1cc(OC)c(OC)c2OC` (stereo not drawn), the Activity in [1] turned out to be 0.46. The same molecule returned an inhibition in data set [2] of 19.2%.

In the case of `CCCCC1OC(=O)c2c1cc(OC)c(O)c2O` (stereo not drawn), the inhibition in data set [17] amounted to 28.5%; in [2], 78.8%. For the same molecule, the Activity was 2.36 in data set [1] and 39.5% in data set [18].

For `CCCCCCCC1OC(=O)c2c1cc(OC)c(OC)c2O` (stereo not drawn), the Activity in data set [1] came to 1.34. This molecule displayed an inhibition in data set [2] of 26.4%.

With `CCCCC1OC(=O)c2c1cc(OC)c(OC)c2O` (stereo not drawn), in data set [1], the Activity was 1.27. This molecule also came in with an inhibition in [2] of 30.2%.

For the molecule `C=CCC1OC(=O)c2c1cc(OC)c(OC)c2OC` (stereo not drawn), the Activity in data set [1] amounted to 0.41. For the same molecule, the inhibition in data set [2] was 25.4%.

For `CCCCCC1OC(=O)c2c1cc(OC)c(O)c2OC` (stereo not drawn), the Activity in data set [1] was found to be 2.08. The molecule further came in with an inhibition in data set [2] of 19.4%.

As for `CCCCC1OC(=O)c2c1cc(OC)c(O)c2OC` (stereo not drawn), the Activity in data set [1] stood at 1.59. Also, in data set [2], the inhibition turned out to be 23.4%.

`C=CCCCC1OC(=O)c2c1cc(OC)c(OC)c2O` (stereo not drawn): the Activity in [1] was determined as 1.68. This molecule also came in with an inhibition in data set [2] of 24.6%.

`CCCCC1OC(=O)c2c1cc(OC)c(OC)c2OC` (stereo not drawn): in data set [1], the Activity was determined as 0.4. In data set [2], this molecule returned an inhibition of 15.9%.

In the case of `CCCCCCC1OC(=O)c2c1cc(OC)c(O)c2O` (stereo not drawn), the values for the inhibition in data set [17] and in data set [2] were 30.5% and 83.3%, respectively. The Activity in [1] is 2.5; in data set [18], 32.3%.

On to `CCCC1OC(=O)c2c1cc(OC)c(OC)c2OC` (stereo not drawn), for which the Activity in [1] is 0.39. The molecule further gave an inhibition in data set [2] of 21.8%.

Take `C=CCCCCC1OC(=O)c2c1cc(OC)c(OC)c2O` (stereo not drawn): the Activity in data set [1] was found to be 1.77. Besides, in data set [2], the inhibition came out at 19.2%.

As for `C=CC(C)(C)C1OC(=O)c2c1cc(OC)c(OC)c2OC` (stereo not drawn), the Activity in data set [1] was 0.45. Moreover, the inhibition in data set [2] is 15%.

Turning to `C=CCCC1OC(=O)c2c1cc(OC)c(OC)c2O` (stereo not drawn), in [1], the Activity is 1.93. This molecule also came in with an inhibition in data set [2] of less than 5%.

Turning to `C=CCCC1OC(=O)c2c1cc(OC)c(OC)c2OC` (stereo not drawn), the Activity in data set [1] worked out at 0.53. The inhibition in [2] came to 24.3%.

Take `C=CCCCCC1OC(=O)c2c1cc(OC)c(OC)c2OC` (stereo not drawn): the Activity in [1] is 0.61. For the same molecule, the inhibition in data set [2] was 17.6%.
